Measured values taken from patent EP1724268A1, “COMPOUND HAVING TGF-BETA INHIBITORY ACTIVITY AND PHARMACEUTICAL COMPOSITION CONTAINING SAME” (KIRIN BEER KABUSHIKI KAISHA, priority 2004, dated 2005).

Tested on: TGFβ signal
Assay: TGFβ signal inhibitory activity, (SBE)4-Luc reporter in A549 cells (Test Examples 1A and 1B)
Type: cell-based, human
Details: Homo sapiens, A549, TGFβ-1 2 ng/ml, 4 hr, Table 1A, read-out: TGFβ inhibition rate, %; for inhibition at 3 µM: test compound 3 µM; for inhibition at 10 µM: test compound 10 µM
How it was run: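 Compounds at 3 µM and 10 µM (some 1 µM) were added with 2 ng/ml TGFβ-1 to A549 cells stably expressing an SBE-driven luciferase, then cultured 4 hr. Chemiluminescent luciferase signal gave % inhibition versus TGFβ-alone and no-TGFβ controls.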

SMILES	inhibition at 3 µM [%]	inhibition at 10 µM [%]
Cc1cc(Oc2ccnc3ccc(-c4cccn4C(=O)OC(C)(C)C)cc23)c(-c2ccccn2)nc1C [Compound 167, 2-[4-(5,6-Dimethyl-[2,2']bipyridinyl-3-yloxy)-quinolin-6-yl]-pyrrole-1-carboxylate tert-butyl ester]	35	85
Cc1cc(Oc2ccnc3ccc(-c4ccc[nH]4)cc23)c(-c2ccccn2)nc1C [Compound 168, 5,6-Dimethyl-3-[6-(1H-pyrrol-2-yl)-quinolin-4-yloxy]-[2,2']bipyridine]	92	100
Cc1cc(Oc2ccnc3ccc(-c4cn[nH]c4)cc23)c(-c2ccccn2)nc1C [Compound 169, 5,6-Dimethyl-3-[6-(1H-pyrazol-4-yl)-quinolin-4-yloxy]-[2,2']bipyridine]	100	100
Cc1cc2nccc(Oc3cc(C)c(C)nc3-c3ccccn3)c2cc1C [Compound 170, 3-(6,7-Dimethyl-quinolin-4-yloxy)-5,6-dimethyl-[2,2']bipyridine]	98	100
Cc1cc(Oc2ccnc3cc(-c4ccsc4)ccc23)c(-c2ccccn2)nc1C [Compound 171, 5,6-Dimethyl-3-(7-thioahen-3-yl-quinolin-4-yloxy)-[2,2']bipyridine]	100	100
Cc1cc(Oc2ccnc3cc(-c4csc5ccccc45)ccc23)c(-c2ccccn2)nc1C [Compound 172, 3-(7-Benzo[b]thiophen-3-yl-quinolin-4-yloxy)-5,6-dimethyl-[2,2']bipyridine]	49	90
Cc1cc(Oc2ccnc3cc(-c4cc5ccccc5o4)ccc23)c(-c2ccccn2)nc1C [Compound 173, 3-(7-Benzofuran-2-yl-quinolin-4-yloxy)-5,6-dimethyl-[2,2']bipyridine]	57	92
Cc1cc(Oc2ccnc3ccc(-c4ccccn4)cc23)c(-c2ccccn2)nc1C [Compound 174, 5,6-Dimethyl-3-(6-pyridin-2-yl-quinolin-4-yloxy)-[2,2']bipyridine]	89	100
Cc1cc(Oc2ccnc3ccc(-c4ncccn4)cc23)c(-c2ccccn2)nc1C [Compound 175, 5,6-Dimethyl-3-(6-pyrimidin-2-yl-quinolin-4-yloxy)-[2,2']bipyridine]	97	100
Cc1cc(Oc2ccnc3cc(-c4ccccn4)ccc23)c(-c2ccccn2)nc1C [Compound 176, 5,6-Dimethyl-3-(7-pyridin-2-yl-quinolin-4-yloxy)-[2,2']bipyridine]	99	100
Cc1cc(Oc2ccnc3cc(-c4ncccn4)ccc23)c(-c2ccccn2)nc1C [Compound 177, 5,6-Dimethyl-3-(7-pyrimidin-2-yl-quinolin-4-yloxy)-[2,2']blpyridine]	98	100
COc1cc2c(Oc3cc4cccnc4nc3-c3ccccc3)ccnc2cc1OCCO [Compound 178, 2-[6-Methoxy-4-(2-phenyl-[1,8]naphthyridin-3-yloxy)-quinolin-7-yloxy]-ethanol]	100	100
CCc1ccc(Oc2ccnc3cc(C(C)(C)C)sc23)c(-c2ccccn2)n1 [Compound 180, 3-(2-Tert-butyl-thieno[3,2-b]pyridin-7-yloxy)-6-ethyl-[2,2']bipyridine]	74	98
CCc1ccc(Oc2ccnc3ccc(OCc4ccccc4)cc23)c(-c2ccccn2)n1 [Compound 183, 3-(6-Benzyloxy-quinolin-4-yloxy)-6-ethyl-[2,2']bipyridine]	100	100
CCc1ccc(Oc2ccnc3cc(C(N)=O)c(Cl)cc23)c(-c2ccccn2)n1 [Compound 185, 6-Chloro-4-(6-ethyl-[2,2']bipyridinyl-3-yloxy)-quinoline-7-carboxylic acid amide]	96	100
COc1cc2nccc(Oc3ccc(C)nc3-c3ncccn3)c2cc1OC [Compound 188, 4-(6-Methyl-2-pyrimidin-2-yl-pyridin-3-yloxy)-6,7-dimethoxy-quinoline]	100	100
CCCNC(=O)NCCOc1ccc2nccc(Oc3ccc(CC)nc3-c3ccccn3)c2c1 [Compound 189, 1-{2-[4-(6-Ethyl-[2,2']bipyridinyl-3-yloxy)-quinolin-6-yloxy]-ethyl}-3-propyl-urea]	97	99
CCc1ccc(Oc2ccnc3ccc(OCc4ccccc4)cc23)c(-c2ncccn2)n1 [Compound 190, 6-Benzyloxy-4-(6-ethyl-2-pyrimidin-2-yl-pyridin-3-yloxy)-quinoline]	100	100

SMILES	inhibition at 3 µM [%]	inhibition at 10 µM [%]
CCc1ccc(Oc2ccnc3ccc(O)cc23)c(-c2ncccn2)n1 [Compound 191, 4-(6-Ethyl-2-pyrimidin-2-yl-pyridin-3-yloxy)-quinolin-6-ol]	99	100
CCc1ccc(Oc2ccnc3cc(C(N)=O)c(OCc4ccccc4)cc23)c(-c2ncccn2)n1 [Compound 193, 6-Benzyloxy-4-(6-ethyl-2-pyrimidin-2-yl-pyridin-3-yloxy)-quinoline-7-carboxylic acid amide]	80	
CCc1ccc(Oc2ccnc3ccc(OCCNS(C)(=O)=O)cc23)c(-c2ncccn2)n1 [Compound 203, N-{2-[4-(6-Ethyl-2-pyrimidin-2-yl-pyridin-3-yloxy)-quinolin-6-yloxy]-ethyl}-methanesulfonic acid amide]	79	
CCc1ccc(Oc2ccnc3ccc(OCCOC(=O)C(C)(C)C)cc23)c(-c2ncccn2)n1 [Compound 207, 2-[4-(6-Ethyl-2-pyrimidin-2-yl-pyridin-3-yloxy)-quinolin-6-yloxy]-ethyl 2,2-dimethyl-propanate]	93	
CCc1ccc(Oc2ccnc3ccc(OCCOC(=O)[C@@H](N)C(C)C)cc23)c(-c2ncccn2)n1 [Compound 208, 2-[4-(6-Ethyl-2-pyrimidin-2-yl-pyridin-3-yloxy)-quinolin-6-yloxy]-ethyl (S)-2-amino-3-methyl-butanoate]	75	
Cc1ccc(Oc2ccnc3ccc(OCCN4CCOCC4)cc23)c(-c2ncccn2)n1 [Compound 209, 4-(6-Methyl-2-pyrimidin-2-yl-pyridin-3-yloxy)-6-(2-morpholin-4--yl-ethoxy)-quinoline]	54	
Cc1ccc(Oc2ccnc3ccc(OCCCCl)cc23)c(-c2ncccn2)n1 [Compound 210, 6-(3-Chloro-propoxy)-4-(6-methyl-2-pyrimidin-2-yl-pyridin-3-yloxy)-quinoline]	87	
Cc1ccc(Oc2ccnc3ccc(OCCCN(C)CCO)cc23)c(-c2ncccn2)n1 [Compound 211, 2-(Methyl-{3-[4-(6-methyl-2-pyrimidin-2-yl-pyridin-3-yloxy)-quinolin-6-yloxy]-propyl}-amino)-ethanol]	54	
Cc1ccc(Oc2ccnc3ccc(OCCCN4CCCCC4)cc23)c(-c2ncccn2)n1 [Compound 212, 4-(6-Methyl-2-pyrimidin-2-yl-pyridin-3-yloxy)-6-(3-piperidin-1- ? -propoxy)-quinoline]	55	
Cc1ccc(Oc2ccnc3ccc(OCC4CCC4)cc23)c(-c2ncccn2)n1 [Compound 213, 6-Cyclobutylmethoxy-4-(6-methyl-2-pyrimidin-2-yl-pyridin-3-yloxy)-quinoline]	98	
Cc1ccc(Oc2ccnc3ccc(OCC(C)(C)C)cc23)c(-c2ncccn2)n1 [Compound 214, 6-(2,2-Dimethyl-propoxy)-4-(6-methyl-2-pyrimidin-2-yl-pyridin-3-yloxy)-quinoline]	90	
Cc1ccc(Oc2ccnc3ccc(OCC(C)(C)CO)cc23)c(-c2ncccn2)n1 [Compound 215, 2,2-Dimethyl-3-[4-(6-methyl-2-pyrimidin-2-yl-pyridin-3-yloxy)-quinolin-6-yloxy]-propan-1-ol]	79	
Cc1ccc(Oc2ccnc3ccc(OCCC4CCCCC4)cc23)c(-c2ncccn2)n1 [Compound 216, 6-(2-Cyclohexylethoxy)-4-(6-methyl-2-pyrimidin-2-yl-pyridin-3-yloxy)-quinoline]	84	
Cc1ccc(Oc2ccnc3ccc(OCCCN4CCN(c5ccccn5)CC4)cc23)c(-c2ncccn2)n1 [Compound 218, 4-(6-Methyl-2-pyrimidin-2-yl-pyridin-3-yloxy)-6-[3-(4-pyridin-2-yl-piperazin-1-yl)-propoxy]-quinoline]	84	100
Cc1ccc(Oc2ccnc3ccc(OCCCN(CCO)c4ccccc4)cc23)c(-c2ncccn2)n1 [Compound 219, 2-({3-[4-(6-Methyl-2-pyrimidin-2-yl-pyridin-3-yloxy)-quinolin-6-yloxy]-propyl}-phenylamino)-ethanol]	96	100
Cc1ccc(Oc2ccnc3ccc(OCCCN4CCC(Cc5ccccc5)CC4)cc23)c(-c2ncccn2)n1 [Compound 220, 6-[3-(4-Benzyl-piperidin-1-yl)-propoxy]-4-(6-methyl-2-pyrimidin-2-yl-pyridin-3-yloxy)-quinoline]	91	100
Cc1ccc(Oc2ccnc3ccc(OCCCN4CCN(CCO)CC4)cc23)c(-c2ncccn2)n1 [Compound 221, 2-(4-{3-[4-(6-Methyl-2-pyrimidin-2-yl-pyridin-3-yloxy)-quinolin-6-yloxy]-propyl}-piperazin-1-yl)-ethano I]	39	79
CCN(C)CCOc1ccc2nccc(Oc3ccc(C)nc3-c3ncccn3)c2c1 [Compound 223, ethyl-methyl-{2-[4-(6-methyl-2-pyrimidin-2-yl-pyridin-3-yloxy)-quinolin-6-yloxy]-ethyl}-amine]	52	90
